Reference: patent publication US20090215713A1, “Use of atp for the manufacture of a medicament for the prevention and treatment of oxidative stress and related conditions” (priority 2004, published 2009)
“Also recorded” adds a separate entry of the source.

Tests used:
[1] = ESR measurement of DMPO—OH spin adducts during Fenton chemistry; assay type: biochemical
Experimental: The effect of ATP on the formation or scavenging of hydroxyl radicals, generated by Fenton reagents was measured as DMPO—OH spin adducts in ESR spectra. The ESR studies were performed at room temperature using a Bruker EMX 1273 spectrometer equipped with an ER 4119HS high sensitivity cavity and 12 kW power supply. The following instrument conditions were used: scan range, 60 G; center magnetic field, 3490 G; modulation amplitude, 1.0 G; microwave frequency, 9.86 GHz; time constant, 40.96 ms, scan time, 20.48 ms; number of scans, 50. OH radicals were generated by the Fenton reaction, and 5,5-dimethyl-1-pyrroline N-oxide (DMPO) was used for trapping hydroxyl radicals. Fifty microliters of 10 mM H2O2, 50 μl of 250 mM DMPO, 50 μl milliQ, 50 μl milliQ (control) or sample, and 50 μl 5 mM FeSO4/5 mM EDTA were mixed, and then transferred to a capillary glass tube. After 2 minutes, DMPO—OH spin adducts were measured by ESR. Quantification of the spectra was performed by peak integration using the WIN-EPR spectrum manipulation program.
Electron spin resonance (ESR) studies were performed at room temperature using a Bruker EMX 1273 spectrometer equipped with an ER 4119HS high sensitivity cavity and 12 kW power supply. The following instrument conditions were used: scan range, 60 G; center magnetic field, 3490 G; modulation amplitude, 1.0 G; microwave frequency, 9.86 GHz; time constant, 40.96 ms, scan time, 20.48 ms; number of scans, 50. OH radicals were generated by the Fenton reaction, and 5,5-Dimethyl-1-pyrroline N-oxide (DMPO) was used for trapping hydroxyl radicals. Fifty microliters of 10 mM H2O2, 50 μl 250 mM DMPO, 50 μl milliQ, 50 μl milliQ (blanco) or sample and 50 μl 5 mM FeSO4/5 mM EDTA were mixed, transferred to a capillary glass tube and the DMPO—OH spin adducts were measured after 2 minutes by ESR. Quantification of the spectra (in arbitrary units) was performed by peak integration using the WIN-EPR spectrum manipulation program.

[2] = tested on: TNF-α; assay: LPS+PHA-induced TNF-α secretion in whole blood from healthy subjects (ELISA); assay type: cell-based, human; settings: for effect of purinergic compound on LPS+PHA-induced TNF-α release: 300 μM, 24 h; for effect on inhibiting TNFα and stimulating IL-10 production: LPS-PHA stimulated whole blood, Experiment 4
Experimental: FIG. 7 Effect of ATP on LPS+PHA-induced TNF-α secretion in whole blood from healthy subjects. The whole blood was exposed to 10 μg/ml LPS and 1 μg/ml PHA with indicated concentrations of ATP for 24 h. The TNF-α released into the supernatants was analyzed using the ELISA method. Results are expressed in percentage, 100% being the TNF-α release under stimulation by LPS+PHA without ATP. […] Data are expressed as the mean values; error bars represent SEM. *, different from control (stimulation by LPS+PHA without ATP) (P<0.05).
FIG. 13 Effect of different purinergic compounds on LPS+PHA-induced TNF-α secretion in whole blood. The whole blood was exposed to 10 μg/ml LPS and 1 μg/ml PHA with the indicated purinergic compounds at the concentration of 300 μM for 24 h. The TNF-α released into the supernatant was analyzed using the ELISA method. Results are expressed in percentage, 100% being the TNF-α release under stimulation by LPS+PHA without addition of a purinergic compound (control). […] The TNF-α release induced by LPS+PHA from whole blood was not inhibited by UTP, UDP or CTP. Data are expressed as the mean values; error bars represent SEM.
Blood was collected from 8 healthy subjects in heparin containing vacutainer tubes. All incubations were performed in duplicate. ATP was dissolved in RPMI 1640 culture medium, at a final concentration of 1-300 μM, and blood pre-incubated with ATP at 5% CO2 at 37 DC for 30 min. After stimulation with LPS en PHA (10 and 1 μg/ml final concentration, respectively), the plates were incubated in 5% CO2 at 37° C. for 24 h. Cell-free supernatant fluids were then collected by centrifugation (6000 rpm, 10 min at 4° C.) and stored at −20° C. until tested for presence of cytokines. All cytokines were quantified by means of PeliKine Compact human ELISA kits (CLB/Sanquin, The Netherlands), based on appropriate and validated sets of monoclonal antibodies.
Whole blood was collected and stimulated with LPS+PHA as described for Experiment 2. ATP, dissolved in RPMI 1640 culture medium, was added to the blood at a final concentration of 1-1000 μM. The agonists were added in the same way as ATP, however their stock solutions are prepared in PBS and further diluted in medium. All incubations are performed in duplicate.

[3] = tested on: mice bearing colon tumour; settings: cited from earlier work; for effect on host weight loss: daily intraperitoneal injections of 25 mmol/L for 10 days

Row | SMILES | effect of purinergic compound on LPS+PHA-induced TNF-α release [2] | effect on inhibiting TNFα and stimulating IL-10 production [2] | other results
1 | Nc1ncnc2c1ncn2[C@@H]1O[C@H](COP(=O)(O)OP(=O)(O)O)[C@@H](O)[C@H]1O [ADP] | inhibited |  | effectiveness in preventing DMPO—OH formation relative to comparator ([1]; 0.1 mM-10 mM): slightly less effective; inhibition of the DMPO—OH spin adduct formation ([1]; highest concentration used (range 0.1 mM-10 mM)): ≈ 70%
2 | Nc1ncnc2c1ncn2[C@@H]1O[C@H](COP(=O)(O)O)[C@@H](O)[C@H]1O [AMP] | inhibited |  | effect on hydroxyl radicals ([1]; 0.1, 0.3 and 1 mM): no significant effect; effect on hydroxyl radicals ([1]; 3 and 10 mM): reduction of hydroxyl radicals; also recorded: significant (P<0.05) reduction; effect on host weight loss [3]: significant inhibition
3 | Nc1ccn([C@@H]2O[C@H](COP(=O)(O)OP(=O)(O)OP(=O)(O)O)[C@@H](O)[C@H]2O)c(=O)n1 [CTP] | not inhibited | little or no effect | 
4 | O=c1ccn([C@@H]2O[C@H](COP(=O)(O)OP(=O)(O)O)[C@@H](O)[C@H]2O)c(=O)[nH]1 [UDP] | not inhibited | little or no effect | 
5 | O=c1ccn([C@@H]2O[C@H](COP(=O)(O)OP(=O)(O)OP(=O)(O)O)[C@@H](O)[C@H]2O)c(=O)[nH]1 [UTP] | not inhibited | little or no effect | 
6 | Nc1ncnc2nc[nH]c12 [adenine] |  |  | effect on DMPO—OH spin adduct formation / hydroxyl radicals ([1]; 1 mM): little or no effect; also recorded: no significant (P<0.05) effect
7 | Nc1ncnc2c1ncn2[C@@H]1O[C@H](CO)[C@@H](O)[C@H]1O [adenosine] | least inhibition |  | inhibition of host weight loss of tumour-bearing animals ([3]; adenosine without phosphate): ineffective; effect on host weight loss [3]: significant inhibition
